# According to patent US20130236416A1, “SURFACE MODIFIED COLLOIDAL PARTICLES” (CLEMSON UNIVERSITY, priority 2012, published 2013):
# “And” between values parts separate entries of the source, which are not always exact repeats. Equal entries are not always repeated. Where two headings read alike, the source gives them in different places.
# Columns and labels:
# [1] = biological target: T1, CARDO complex (Metapseudomonas resinovorans, UniProt Q8G8B6); experiment: Temperature dependence of 9H-carbazole conversion by purified CARDO complex; assay type: biochemical, Pseudomonas resinovorans CA10; conditions: 5° C.
# T1 construct: (HIS)6 (C); made in house; host or cells: Escherichia coli BL21(DE3) Rosetta
# Experimental: Purified CARDO complex activity was monitored using a modified enzymatic assay previously described [H. Nojiri, et al. Structure of the terminal oxygenase component of angular dioxygenase, carbazole 1,9a-dioxygenase. Journal of Molecular Biology, 351(2):355-370, 2005.]. The purified enzymes CARDO-F, CARDO-O and CARDO-R were incubated in 20 μL Buffer D (25 mM Tris-HCl pH 7.5 and 1 mM NADH) containing 1 mM carbazole dissolved in DMSO at varying temperatures from 30° C. to 5° C. An aliquot was removed from the reaction at the indicated times and the absorbance of the reaction was determined with a NanoDrop spectrophotometer (Thermo Scientific) at 295 nm.
# [2] = system: P. resinovorans CA10; experiment: Proliferation of P. resinovorans CA10 on carbazole-based media; assay type: cell-based, Pseudomonas resinovorans CA10; conditions: 96 hour incubation
# Experimental: Control growth performed with glucose medium (Δ).
# The bioavailability of the hydrophobic metabolites is also critical to understanding metabolic enzymes that bind to them[40]. […] FIG. 3 presents the proliferation of P. resinovorans CA10 with both 9H-carbazole and PA/AC particle based media during a 96 hour incubation.
# [3] = Relative fluorescence quantum yield versus reference dye HITCI in methanol; assay type: physicochemical
# Experimental: Absorption spectra were taken using a Perkin-Elmer Lambda 900 UV/VIS/NIR spectrophotometer. Photoluminescence (PL) spectra were collected using a Thermo Oriel xenon arc lamp (Thermo Oriel 66 902) mated with a Thermo Oriel Cornerstone 7 400 1/8m monochromator (Thermo Oriel 7400) and a Horiba Jobin-Yvon MicroHR spectrometer coupled to a Synapse CCD detector. Quantum yields (φ) of the dyes and modified particles were determined relative to the reference dye 1,10,3,3,30,30-hexamethylindotricarbocyanine iodide (HITCI) in methanol, which has a fluorescence quantum yield of φref=0.12, [51,20] employing established procedures.
# [4] = cited from earlier work
# T1 sequence (Q8G8B6 whole entry, one chain of several): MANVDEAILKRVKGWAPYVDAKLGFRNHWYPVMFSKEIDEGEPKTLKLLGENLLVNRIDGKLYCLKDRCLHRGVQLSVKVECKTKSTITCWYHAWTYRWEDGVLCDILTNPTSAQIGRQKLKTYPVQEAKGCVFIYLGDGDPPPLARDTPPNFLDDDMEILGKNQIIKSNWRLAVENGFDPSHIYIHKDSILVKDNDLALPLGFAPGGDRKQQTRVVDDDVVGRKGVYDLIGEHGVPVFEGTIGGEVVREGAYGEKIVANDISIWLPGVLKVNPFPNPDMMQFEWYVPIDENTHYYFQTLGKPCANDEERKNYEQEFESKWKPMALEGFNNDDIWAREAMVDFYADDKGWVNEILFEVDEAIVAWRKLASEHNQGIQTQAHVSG
structure (smiles),measurement,setting,value
c1ccc2c(c1)[nH]c1ccccc12 [9H-carbazole],conversion of carbazole by purified CARDO complex,[1],significantly retarded
same,growth of P. resinovorans CA10 on the substrate-based medium,[2],consistent growth
"CC1(C)C(/C=C/C=C/C=C/C=C2\N(CCCCS(=O)(=O)O)c3ccc4ccccc4c3C2(C)C)=[N+](CCCCS(=O)(=O)[O-])c2ccc3ccccc3c21 [ICG, Indocyanine green]",relative fluorescence quantum yield φ,[3],0.036±0.002
same,yield of triplet formation through S1-T1 intersystem-crossing,[4]; free ICG in an aqueous albumin solution,11%
same,yield of triplet formation through S1-T1 intersystem-crossing,[4]; free ICG in water,14%
same,fluorescence quantum yield of free ICG in water,"[4]; water, ICG concentration ca. 2.7×10^−3 mol·dm^−3",ca. 4×10^−5
"CC1(C)C(/C=C/C=C/C=C/C=C2/N(CCCN=[N+]=[N-])c3ccc4ccccc4c3C2(C)C)=[N+](CCCCS(=O)(=O)[O-])c2ccc3ccccc3c21 [azICG, 4-(2-(1E,3E,5E,7E)-7-[3-(3-Azidopropyl)-1,1-Dimethyl-1,3-Dihydro-2H-Benzo[e]Indol-2-Ylidene]-1,3,5-Heptatrienyl-1,1-Dimethyl-1H-Benzo[e]Indolium-3-yl)-1-Butanesulfonate]",relative fluorescence quantum yield φ,[3],0.044±0.004 and 0.044
"CN1C(=CC=CC=CC=CC2=[N+](C)c3ccccc3C2(C)C)C(C)(C)c2ccccc21.[I-] [HITCI, 1,10,3,3,30,30-hexamethylindotricarbocyanine iodide]",fluorescence quantum yield φref,[4]; reference dye in methanol,0.12
